{"source": "patent US5610185A", "about": "“Method for the treatment of hyperproliferative epithelial skin diseases by topical application of hydroxylated aromatic protein cross-linking compounds” (The United States of America as represented by the …, priority 1995, dated 1997)", "key": {"transglutaminase": {"test_system": "transglutaminase", "conditions": "Dlugosz and Yuspa, Cancer Res., 51, 4677-4684, 1991; cited from earlier work"}, "[1]": {"test_system": "primary mouse keratinocytes", "assay": "Cornified envelope (cross-linked protein) assay, primary mouse keratinocytes", "assay_type": "cell-based", "conditions": "4° C. and 37° C., 48 hours", "description": "FIGS. 3A and 3B. A: Time course for cornification of primary mouse keratinocytes in response to MC. Boxes represent […] Ca^2+, triangles represent 100 μM MC, 1.4 mM Ca^2+, and solid circles represent 1 mM MC, 1.4 mM Ca^2+. […] Cells were incubated in medium with 1.4 mM Ca^2+ and MC for 4 hours, then were incubated with MTT (0.5 mg/ml in medium) for a further 4 hours before determination of formazan production.\nPrimary mouse keratinocytes were isolated from BALB/c newborn mouse skin. Primary keratinocytes, the benign neoplastic keratinocyte cell lines 308 and SP-1 (Strickland et al, Cancer Res., 48, 165-169, 1988) and the mouse squamous cell carcinoma line 1-7 (Greenhalgh et al., Proc. Natl. Acad. Sci., 87, 643-647, 1990) were grown in Eagle's minimal essential medium with 8% fetal calf serum (FCS) (chelexed) and penicillin 20 iu/ml, streptomycin 20 ug/ml (P/S). Unless otherwise indicated, the Ca^2+ concentration in medium was adjusted to 0.05 mM (Hennings et al., Cells, 19, 245-254, 1980). A431 human epidermoid carcinoma cells were obtained from ATCC, Rockville, Md., and were routinely passaged in DMEM with 10% FCS, P/S, glutamine (2 mM) and pyruvate (1 mM). SQCC-Y1 human squamous carcinoma cells and non-tumorigenic HPV 18 and SV 40 infected human keratinocytes were kindly donated by Dr. James Rheinwald of Harvard University, Boston, Mass. and Dr. Richard Schlegel of Georgetown University, Washington D.C. respectively. Human cells were cultured in DMEM/Ham's F12 1:1, 10% FCS, P/S and epidermal growth factor 10 ng/ml.\nPrimary mouse keratinocytes were incubated with MC for 0, 0.5, 1, 4 and 48 hours and were processed as follows.\n(§1) The assay measures insoluble cross-linked protein envelopes as described (Hough-Monroe et al. Analytical biochem., 199, 25-28, 1991), with modifications as follows. Cornified envelopes were prepared by scraping monolayers into 2% sodium dodecylsulphate (SDS), 20 mM dithiothreitol (DTT) in phosphate buffered saline (PBS). Unattached cells were pelleted from medium and were resuspended in SDS/DTT and pooled with attached cells. Samples were boiled for 10 mins. Cornified envelope samples were examined under the microscope using phase contrast optics or were applied to an RC60 membrane (Schleicher and Schuell, Keene, N.H.) on a 96-well dot-blot apparatus attached to a vacuum. Samples were washed three times with SDS/DTT and the resultant protein spots on RC60 membrane were fixed and stained as described. Sports were excised and eluted with 1% NH3 OH concentrated solution, 66% methanol (200 ul) overnight. Absorbance of eluate was measured on a Titertek plate reader at 600 nm.\nCells were seeded at low density and were treated with MC for 3 days. Cells were then counted and increase in cell number was compared to untreated controls, or cells were processed for cross-linked protein.\nInhibitors were added 30 mins before MC or stsp (FIG. 6). Cross-linked protein was measured by the cornified envelope assay, described in Example 2."}, "[2]": {"test_system": "SQCC-Y1 human squamous carcinoma cells", "assay": "Cornified envelope (cross-linked protein) assay, SQCC-Y1 cells", "assay_type": "cell-based", "conditions": "for cross-linked protein production by MC derivatives: SQCC-Y1 cells, FIG. 11, preliminary; for potency in cross-linking: of 15 aromatic compounds, FIG. 12"}, "308 and SQCC-Y1 cells": {"test_system": "308 and SQCC-Y1 cells", "assay": "Cross-linked protein envelopes by tyrosine kinase inhibitors (Table II)", "assay_type": "cell-based", "conditions": "concentrations within the range for inhibition of tyrosine kinases", "description": "as §1\nA range of tyrosine kinase inhibitors was tested for ability to produce cross-linked protein envelopes in 308 and SQCC-Y1 cells. All inhibitors were obtained commercially from LC Laboratories, Woburn, Mass. Concentrations used were within the range for inhibition of tyrosine kinases."}}, "data": [{"smiles": "CN[C@@H]1C[C@H]2O[C@@](C)([C@@H]1OC)n1c3ccccc3c3c4c(c5c6ccccc6n2c5c31)C(=O)NC4", "note": "[staurosporine, reference compound]", "values": [{"measurement": "transglutaminase activity (literature)", "setting": "transglutaminase", "value": "increases TGase activity"}, {"measurement": "cross-linked protein at 4° C. and 37° C.", "setting": "[1]", "value": "temperature dependent"}]}, {"smiles": "O=C(/C=C/c1ccc(O)c(O)c1)OCCc1ccccc1", "note": "[67H-42-A, Caffeic acid β-phenylethyl ester]", "values": [{"measurement": "cross-linked protein production by MC derivatives", "setting": "[2]", "value": "inactive"}]}, {"smiles": "COC1C=CC=C(C)C(=O)NC2=CC(=O)C=C(C2=O)C(OC)C(C)CC(OC)C(OC)C(C)C=C(C)C1OC(N)=O", "note": "(centres unmarked) [herbimycin A]", "values": [{"measurement": "ability to induce cross-linking", "setting": "308 and SQCC-Y1 cells", "value": "unable to induce cross-linking"}]}, {"smiles": "O=C(C=Cc1cc(O)c(O)cc1O)OCCc1ccccc1", "note": "[67H-98-A, 2,4,5-Trihydroxycinnamic acid β-phenylethyl ester]", "values": [{"measurement": "cross-linked protein production by MC derivatives", "setting": "[2]", "value": "active"}, {"measurement": "cross-linked protein production by MC derivatives", "setting": "[2]; listed as 67H-98A", "value": "clearly exhibit protein cross-linking activity"}, {"measurement": "potency in cross-linking", "setting": "[2]", "value": "most potent"}]}, {"smiles": "O=C(CCc1ccc(O)c(O)c1)OCCc1ccccc1", "note": "[67H-69-A, 3-(3,4-Dihydroxyphenyl) propanoic aid β-phenylethyl ester]", "values": [{"measurement": "cross-linked protein production by MC derivatives", "setting": "[2]", "value": "active"}, {"measurement": "cross-linked protein production by MC derivatives", "setting": "[2]; listed as 67H-69A", "value": "clearly exhibit protein cross-linking activity"}, {"measurement": "potency in cross-linking", "setting": "[2]", "value": "most potent"}]}, {"smiles": "O=C(C=Cc1cc(O)ccc1O)OCCc1ccccc1", "note": "[67H-124-A, 2.5-dihydroxycinnamic acid β-phenylethyl ester]", "values": [{"measurement": "cross-linked protein production by MC derivatives", "setting": "[2]", "value": "clearly exhibit protein cross-linking activity"}, {"measurement": "potency in cross-linking", "setting": "[2]", "value": "most potent"}]}, {"smiles": "COC(=O)c1cc2ccc(O)c(O)c2cn1.Cl", "note": "[67F-36-A, 7,8-Dihydroxyisoquinoline-3-carboxylic acid methyl ester hydrochloride]", "values": [{"measurement": "cross-linked protein production by MC derivatives", "setting": "[2]", "value": "inactive"}]}, {"smiles": "COC(=O)c1ccc2c(O)c(O)ccc2c1", "note": "[67G-146-A, 5,6-Dihydroxy-2-naphthoic acid methyl ester]", "values": [{"measurement": "cross-linked protein production by MC derivatives", "setting": "[2]", "value": "active"}, {"measurement": "cross-linked protein production by MC derivatives", "setting": "[2]; listed as 67G-146A", "value": "clearly exhibit protein cross-linking activity"}, {"measurement": "potency in cross-linking", "setting": "[2]", "value": "most potent"}]}, {"smiles": "O=C(O)c1cc(N(Cc2ccccc2O)Cc2cc(O)ccc2O)ccc1O", "note": "[lavendustin A]", "values": [{"measurement": "ability to induce cross-linking", "setting": "308 and SQCC-Y1 cells", "value": "unable to induce cross-linking"}]}]}
